Measurements published in US8299036B2, “Active agent combinations with insecticidal and acaricidal properties” (priority 2003, dated 2012).

Key:
Assay type in all cases: in vivo
Aphis gossypii = Aphis gossypii test (cotton leaves, dip); details: Table A
Method: To produce a suitable preparation of active compound, 1 part by weight of active compound is mixed with the stated amount of solvent and emulsifier, and the concentrate is diluted with emulsifier-containing water to the desired concentration.
Cotton leaves (Gossypium hirsutum) which are heavily infested by the cotton aphid (Aphis gossypii) are treated by being dipped into the preparation of active compound of the desired concentration.
(§1) After the desired period of time, the kill in % is determined. 100% means that all aphids have been killed; 0% means that none of the aphids have been killed. The kill rates determined are calculated using Colby's formula (see page 44).

Myzus persicae = Myzus persicae test (cabbage leaves, dip); details: Table C
Method: (§2) To produce a suitable preparation of active compound, 1 part by weight of active compound is mixed with the stated amounts of solvent and emulsifier, and the concentrate is diluted with emulsifier-containing water to the desired concentration.
Cabbage leaves (Brassica oleracea) which are heavily infested by the green peach aphid (Myzus persicae) are treated by being dipped into the preparation of active compound of the desired concentration.
as §1

[1] = system: Phaedon cochleariae larvae; experiment: Phaedon cochleariae larvae test (cabbage leaves, dip)
Method: Phaedon cochleariae Larvae Test
as §2
Cabbage leaves (Brassica oleracea) are treated by being dipped into the preparation of active compound of the desired concentration and are populated with larvae of the mustard beetle (Phaedon cochleariae) while the leaves are still moist.
After the desired period of time, the kill in % is determined. 100% means that all beetle larvae have been killed; 0% means that none of the beetle larvae have been killed. The kill rates determined are calculated using Colby's formula (see page 44).

[2] = system: Tetranychus urticae (OP-resistant); experiment: Tetranychus urticae test (OP-resistant; dip application)
Method: Tetranychus urticae Test (OP-Resistant; Dip Application)
as §2
Bush beans (Phaseolus vulgaris) which are heavily infested by the greenhouse red spider mite (Tetranychus urticae) are dipped into a preparation of active compound of the desired concentration.
After the desired period of time, the kill in % is determined. 100% means that all spider mites have been killed; 0% means that none of the spider mites have been killed. The kill rates determined are calculated using Colby's formula (see page 44).

Heliothis armigera = Heliothis armigera test (cabbage leaves, dip); details: for Kill rate in % after 6 d, found: Table B 1; for Kill rate in % after 3 d, found: Table B 2
Method: as §2
Cabbage leaves (Brassica oleracea) are treated by being dipped into the preparation of active compound of the desired concentration and are populated with caterpillars of the cotton boll worm (Heliothis armigeia) while the leaves are still moist.
After the desired period of time, the kill in % is determined. 100% means that all caterpillars have been killed; 0% means that none of the caterpillars have been killed. The kill rates determined are calculated using Colby's formula (see page 44).

With `CC(C)c1cc(Oc2ccccc2)cc(C(C)C)c1NC(=S)NC(C)(C)C` [(2-5) diafenthiuron, diafenthiuron, reference compound] the “Kill rate in % after 1 d, found” value (Aphis gossypii; 20 ppm) was 15%.

In the case of `O=S1OCC2C(CO1)C1(Cl)C(Cl)=C(Cl)C2(Cl)C1(Cl)Cl` (stereo not shown) [(2-20) endosulfan, endosulfan, reference compound], the “Kill rate in % after 6 d, found” value (Myzus persicae; 20 ppm) is reported as 15%.

For `Cc1cc(C)c(C2=C(OC(=O)CC(C)(C)C)C3(CCCC3)OC2=O)c(C)c1` [Example I-1], the “Kill rate in % after 4 d, found” value ([1]; Table D 2, 100 ppm) was 45% and the “Kill rate in % after 7 d, found” value ([2]; Table E 2, 0.8 ppm) was 65%.

`CCC(C)(C)C(=O)OC1=C(c2ccc(Cl)cc2Cl)C(=O)OC12CCCCC2` [Example I-2] was tested, and the “Kill rate in % after 4 d, found” value ([1]; Table D 1, 100 ppm) was 0% and the “Kill rate in % after 7 d, found” value ([2]; Table E 1, 0.8 ppm) was 0%.

In the case of `Cc1cc(Cl)cc(C(=O)NC(C)C)c1NC(=O)c1cc(C(F)(F)F)nn1-c1ncccc1Cl` [II-1-9], the “Kill rate in % after 4 d, found” value ([1]; Table D 1, 0.16 ppm) is reported as 0%, the “Kill rate in % after 4 d, found” value ([1]; Table D 2, 0.16 ppm) is reported as 5% and the “Kill rate in % after 1 d, found” value (Aphis gossypii; 4 ppm) is reported as 10%. For the same compound, the “Kill rate in % after 6 d, found” value (Heliothis armigera; 0.0064 ppm) was 30%, the “Kill rate in % after 3 d, found” value (Heliothis armigera; 0.0064 ppm) was 10% and the “Kill rate in % after 6 d, found” value (Myzus persicae; 4 ppm) was 25%. For the same compound, the “Kill rate in % after 7 d, found” value ([2]; Table E 1, 100 ppm) was 0% and the “Kill rate in % after 7 d, found” value ([2]; Table E 2, 100 ppm) was 0%.

In the case of “abamectin [(2-2) abamectin, reference compound]”, the “Kill rate in % after 6 d, found” value (Heliothis armigera; 0.16 ppm) is reported as 50%.

In the case of “spinosad [(2-17) spinosad, reference compound]”, the “Kill rate in % after 3 d, found” value (Heliothis armigera; 0.032 ppm) is reported as 0%.
